# Tests used:
# Magel2 KO neonates = experiment: Injection of oxytocin or vasopressin in Magel2 KO neonates: rescue of feeding and survival; assay type: in vivo, mouse
# Description: Three to 5 hours after delivery, wild type pups or pups issued from a cross between an heterozygote (+/−) male with wild type females were temporally removed (10 min) from their mother, weighted and given a single s.c. (in the ventral region at the level of floating ribs) injection (20 μl) of isotonic saline or 2 μg oxytocin (Phoenix Pharmaceuticals. Inc., Catalog No. 051-01) dissolved in isotonic saline (20 μl). […] Following the same protocol, we injected vasopressin (Phoenix Pharmaceuticals. Inc., Catalog No. 065-07) at different doses. At P2, pups were scarified to be genotyped.
# The results obtained with the injection of SSR 126768A OTA let us think that we might restore a normal feeding behaviour in Magel2 KO newborns with an OT injection just after birth. Early neonatal manipulation of OT was reported in the literature without alterations of the postnatal development (Cushing, B. S., et Al., 2003; Yamamoto, Y., et al., 2004; Saito, O., et Al., 2007). Initially, 28 wild type newborns were injected with an isotonic saline (20 μl) and 4 of them died at P1. Another cohort of 28 wild type newborns, […] on hypothalamic nuclei one hour after the injection (Cushing, B. S., et Al., 2003; Yamamoto, Y., et al., 2004). We then decided to inject 2 μg of OT in Magel2 KO and wild type newborns, 3 to 5 hours after birth, the time when wild type newborns started to suckle but not the mutant neonates. […] The level of lethality is similar after an injection of saline solution (4/28 dead pups) or oxytocin (3/28 dead pups) and is in the range of lethality normally observed in wild type cohorts. In a second step, ten litters including a total of 37 wild type and 40 Magel2 KO neonates, were injected with an oxytocin solution. At P2, we observed that 95% (35/37) of wild type and 93% (37/40) of Magel2 mutant newborns survived with milk previously detected in their stomach at P1. In parallel, we controlled that the rescue of Magel2 KO neonates was specifically due to the oxytocin injection and not to the injection stress and/or handling of neonates. […]
# adult patients with PWS [1] = experiment: Tests evaluating the understanding of social codes (Sally and Ann, Cartoons, RMET); assay type: in vivo, human; conditions: 45 minutes after intranasal 24 UI
# Description: Forty-five minutes after the intranasal administration, three tests evaluating the understanding of social codes were administered, which lasted one hour. Conversely to the behavioural grid, there was no pre-administration evaluation. The Sally and Ann test assesses one's ability to understand simple situations by story-telling and pictures. Cartoons depicting more complex social situations designed for the evaluation of autistic children were also used (“Cartoons”, unpublished test). The “Reading the Mind in the Eyes” test (RMET) assesses the ability to read emotions from subtle affective facial expressions, especially in the eyes. A shortened test with 19 images from the 36-item revised version was chosen by the team psychologist. In these three tests, TOM is necessary to understand and analyse the social situations that are presented. Statistical analysis was performed using the Mann-Whiney test, the Wilcoxon test or the chi2 test.
# adult patients with PWS [2] = experiment: Tolerance in the clinical pilot study; assay type: in vivo, human; conditions: single intranasal 24 UI
# Description: The inventors designed a double-blind randomised, placebo-controlled pilot study (ClinicalTrials.gov Identifier: NCT01038570) to be conducted in a dedicated PWS centre, where patients are regularly admitted for one month and live in a controlled environment. Patients know they have no free access to food but no doubt about the time and the content of meals. For each stay, 16 patients with PWS are admitted and take part in daily planned occupational and physical group activities. They also receive medical care as needed and psychological support. The 24 patients included in this study (16 females, 8 males, median age 28.5 years [18.7 to 43.6], median BMI 43 kg/m2 [19.4 to 67.4]) were stratified on gender and IQ (median IQ=51 [45 to 75]). […] Patients as well as parents or caregivers gave their written consent prior to entering the study. Exclusion criteria were an abnormal ECG and other severe cardiovascular problems. Patients were well known to the team. Each pair of patients of the same gender and same IQ range was evaluated the same day. The two patients of the pair received either OT or placebo in a double-blind randomisation. Patients were included in the study over the course of three series of stays.
# Each patient received a single intranasal administration of either placebo (saline solution) or OT (Syntocinon®/-Spray, Novartis, Basel, Switzerland) with three puffs per nostril (24 UI). The dose of 24 UI is the most frequently reported in the literature. […] This nurse knew neither the patients nor the study.
smiles,measurement,setting,value
CC[C@H](C)[C@@H]1NC(=O)[C@H](Cc2ccc(O)cc2)NC(=O)[C@@H](N)CSSC[C@@H](C(=O)N2CCC[C@H]2C(=O)N[C@@H](CC(C)C)C(=O)NCC(N)=O)NC(=O)[C@H](CC(N)=O)NC(=O)[C@H](CCC(N)=O)NC1=O [oxytocin],newborns survived at P2 with milk in stomach at P1,"Magel2 KO neonates; Magel2 mutant, 2 μg oxytocin s.c. 3 to 5 hours after birth, vehicle lethality 48.5% at P1",93%
same,rescue of the death rate due to the feeding deficit,"Magel2 KO neonates; one single injection, 3-5 hours after birth",efficiently rescue the death rate
same,patients who successfully completed the Sally and Ann test,"adult patients with PWS [1]; OT group n=12, placebo 50%, P=0.19",Eighty-three
same,Cartoons score,"adult patients with PWS [1]; OT vs placebo, P=0.56",3.75 (1-18)
same,total RMET score,"adult patients with PWS [1]; placebo 5.5 (1-11), P=0.18",7 (4-9)
same,Tolerance,adult patients with PWS [2],excellent
same,adverse event during the study,adult patients with PWS [2],No adverse event
same,effect on electrocardiogram and PSA,adult patients with PWS [2],no effect
